Results from patent US20230265151A1, “GIP/GLP1 CO-AGONIST COMPOUNDS” (priority 2020, published 2023).
Like-named read-outs stand apart in the source and are kept apart here. *1 amine or outer side, *2 acyl side, *3 side chain or, on linkers, in order; H or OH if unused. Where a SMILES comes first, the peptide text is derived from it. Side-chain parts run from the residue outwards. [ ]: non-standard residue; d: D form. The star is where a group is joined. Decanoyl(10-(4-HOOC-PhO)) = O=C(O)c1ccc(OCCCCCCCCCC(=O)*)cc1; αMePhe(2-F) = C[C@](N)(Cc1ccccc1F)C(=O)O; γGlu = O=C(O)[C@H](CCC(=O)[*:2])N[*:1]; C14 diacid = O=C(O)CCCCCCCCCCCCC(=O)*; εLys = N[C@@H](CCCCN[*:1])C(=O)[*:2]; αMeY = C[C@](N)(Cc1ccc(O)cc1)C(=O)O; 4Pal = N[C@@H](Cc1ccncc1)C(=O)O; αMeL = CC(C)C[C@](C)(N)C(=O)O; Orn = NCCC[C@H](N)C(=O)O; AEEA = NCCOCCOCC(=O)O; Aib = CC(C)(N)C(=O)O

Columns and labels:
Assay type in all cases: cell-based
hGIPR = target: T1, hGIPR (Homo sapiens, UniProt P48546); assay: Functional cAMP formation (HTRF) in HEK-293 clonal cells expressing hGIPR, 0.1% bovine casein, without or with 1.0% human serum albumin; details: for EC50: geometric mean
T1 construct: expressed in transfected cells
T1 sequence (P48546 22-466): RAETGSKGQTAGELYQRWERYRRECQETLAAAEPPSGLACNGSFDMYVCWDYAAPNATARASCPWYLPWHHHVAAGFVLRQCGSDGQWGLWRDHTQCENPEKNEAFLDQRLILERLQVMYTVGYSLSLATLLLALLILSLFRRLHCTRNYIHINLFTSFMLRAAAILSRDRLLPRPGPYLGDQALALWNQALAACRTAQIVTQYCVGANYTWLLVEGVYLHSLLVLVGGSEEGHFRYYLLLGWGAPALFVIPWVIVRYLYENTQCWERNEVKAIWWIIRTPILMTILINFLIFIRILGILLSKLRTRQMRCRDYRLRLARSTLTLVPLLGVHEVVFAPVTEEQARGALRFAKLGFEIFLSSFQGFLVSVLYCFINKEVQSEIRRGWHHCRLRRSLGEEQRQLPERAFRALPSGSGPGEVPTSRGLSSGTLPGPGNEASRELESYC
Outline: (§1)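 Cells were stimulated with peptide for 30 min at 37° C, then lysed in buffer carrying cAMP-d2 and anti-cAMP Eu3+-cryptate for a competitive HTRF read after at least 60 min at room temperature. The 665/620 nm ratio was converted to nM cAMP against a standard curve.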

hGCGR = target: T2, hGCGR (Homo sapiens, UniProt P47871); assay: Functional cAMP formation (HTRF) in HEK-293 clonal cells expressing hGCGR, 0.1% bovine casein, without or with 1.0% human serum albumin; details: geometric mean
T2 construct: expressed in transfected cells
T2 sequence (P47871 26-477): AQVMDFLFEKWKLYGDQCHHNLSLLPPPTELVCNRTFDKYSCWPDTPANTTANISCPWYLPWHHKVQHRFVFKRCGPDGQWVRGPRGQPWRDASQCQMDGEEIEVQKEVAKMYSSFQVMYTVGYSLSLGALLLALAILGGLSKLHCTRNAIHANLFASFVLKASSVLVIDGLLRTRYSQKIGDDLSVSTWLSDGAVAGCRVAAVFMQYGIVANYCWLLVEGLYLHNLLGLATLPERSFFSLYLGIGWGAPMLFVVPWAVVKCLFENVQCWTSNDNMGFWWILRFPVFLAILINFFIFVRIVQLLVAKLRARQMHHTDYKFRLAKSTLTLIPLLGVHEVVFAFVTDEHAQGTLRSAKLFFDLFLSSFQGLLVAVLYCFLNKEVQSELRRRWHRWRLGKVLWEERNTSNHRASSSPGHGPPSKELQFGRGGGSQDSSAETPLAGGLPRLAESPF
Outline: as §1

hGLP-1R = hGLP-1R (Homo sapiens, UniProt P43220); assay: Functional cAMP formation (HTRF) in HEK-293 clonal cells expressing hGLP-1R, 0.1% bovine casein, without or with 1.0% human serum albumin; parameters: expressed in transfected cells; details: for EC50: geometric mean
Chain of hGLP-1R (P43220 24-463): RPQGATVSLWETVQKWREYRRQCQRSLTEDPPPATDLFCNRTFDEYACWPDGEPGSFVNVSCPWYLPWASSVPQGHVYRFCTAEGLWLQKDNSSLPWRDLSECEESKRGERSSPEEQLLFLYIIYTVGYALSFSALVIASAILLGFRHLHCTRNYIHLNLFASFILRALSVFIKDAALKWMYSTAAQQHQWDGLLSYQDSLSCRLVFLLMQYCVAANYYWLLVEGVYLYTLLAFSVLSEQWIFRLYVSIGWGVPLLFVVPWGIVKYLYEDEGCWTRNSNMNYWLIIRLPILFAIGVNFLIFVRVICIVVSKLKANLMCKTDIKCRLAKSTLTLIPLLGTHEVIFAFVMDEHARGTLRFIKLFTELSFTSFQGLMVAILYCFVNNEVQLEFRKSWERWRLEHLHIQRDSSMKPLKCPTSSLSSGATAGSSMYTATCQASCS
Outline: as §1

[1] = 0.1% bovine casein and 1.0% human serum albumin, 37° C., read-out: hGIPR EC50, nM (SEM, n)
[2] = HEK293, 0.1% bovine casein and 1.0% human serum albumin, 37° C., percent of maximal response to GIP(1-42)NH2, read-out: hGIPR Emax, % ± SEM
[3] = cAMP, incubated at 37° C., 0.1% bovine casein (no human serum albumin), read-out: hGIPR EC50, nM (SEM, n)
[4] = 0.1% bovine casein and 1.0% human serum albumin, 37° C., read-out: hGCGR EC50, nM (SEM, n)
[5] = cAMP, incubated at 37° C., 0.1% bovine casein (no human serum albumin), read-out: hGCGR EC50, nM (SEM, n)
[6] = 0.1% bovine casein and 1.0% human serum albumin, 37° C., read-out: hGLP-1R EC50, nM (SEM, n)
[7] = cAMP, incubated at 37° C., 0.1% bovine casein (no human serum albumin), read-out: hGLP-1R EC50, nM (SEM, n)
[8] = HEK293, read-out: hGIPR Emax, % ± SEM, 0.1% bovine casein and 1.0% human serum albumin, 37° C., percent of maximal response to GIP(1-42)NH2
[9] = hGCGR EC50, nM (SEM, n), 0.1% bovine casein and 1.0% human serum albumin, 37° C.

CC[C@H](C)[C@H](NC(=O)[C@H](CC(C)C)NC(=O)[C@](C)(Cc1ccc(O)cc1)NC(=O)[C@@H](CCC(=O)O)NC(=O)[C@@H](NC(=O)[C@H](Cc1ccccc1)NC(=O)[C@H](CCC(=O)O)NC(=O)C(C)(C)NC(=O)[C@H](CCC(N)=O)NC(=O)[C@H](C)NC(=O)[C@H](CCCCNC(=O)[C@@H](N)CCCCNC(=O)CC[C@H](NC(=O)CCCCCCCCCCCCC(=O)O)C(=O)O)NC(=O)[C@H](CCCN)NC(=O)[C@H](CC(=O)O)NC(=O)[C@H](CC(C)C)NC(=O)[C@](C)(CC(C)C)NC(=O)[C@@H](NC(=O)[C@H](CO)NC(=O)[C@H](Cc1ccncc1)NC(=O)[C@H](CC(=O)O)NC(=O)[C@H](CO)NC(=O)[C@@H](NC(=O)[C@](C)(Cc1ccccc1F)NC(=O)[C@@H](NC(=O)CNC(=O)[C@H](CCC(=O)O)NC(=O)C(C)(C)NC(=O)[C@@H](N)Cc1ccc(O)cc1)[C@@H](C)O)[C@@H](C)O)[C@@H](C)CC)[C@@H](C)CC)C(=O)N[C@@H](CCC(=O)O)C(=O)NCC(=O)NCC(=O)N[C@@H](CCCCNC(=O)[C@@H](N)CCCCNC(=O)CC[C@H](NC(=O)CCCCCCCCCCCCC(=O)O)C(=O)O)C(N)=O [Example 186] (H-Y[Aib]EGT[αMePhe(2-F)]TSD[4Pal]SI[αMeL]LD[Orn]K([εLys-γGlu-C14 diacid])AQ[Aib]EFI[dE][αMeY]LIEGGK([εLys-γGlu-C14 diacid])-NH2; N-terminus assumed)
EC50 (hGIPR; [1]): 2.19 nM
Emax (hGIPR; [2]): 85.6%
EC50 (hGIPR; [3]): 0.0274 nM
EC50 (hGCGR; [4]): > 9950 nM
EC50 (hGCGR; [5]): > 9950 nM
EC50 (hGLP-1R; [6]): 24.3 nM
EC50 (hGLP-1R; [7]): 0.371 nM

CC[C@H](C)[C@H](NC(=O)[C@H](CC(C)C)NC(=O)[C@](C)(Cc1ccc(O)cc1)NC(=O)[C@H](CCCCNC(=O)COCCOCCNC(=O)COCCOCCNC(=O)CC[C@H](NC(=O)CCCCCCCCCCCCC(=O)O)C(=O)O)NC(=O)[C@@H](NC(=O)[C@H](Cc1ccccc1)NC(=O)[C@H](CCC(=O)O)NC(=O)C(C)(C)NC(=O)[C@H](CCC(N)=O)NC(=O)[C@H](C)NC(=O)[C@H](CCCCNC(=O)COCCOCCNC(=O)COCCOCCNC(=O)CC[C@H](NC(=O)CCCCCCCCCCCCC(=O)O)C(=O)O)NC(=O)[C@H](CCCN)NC(=O)[C@H](CC(=O)O)NC(=O)[C@H](CC(C)C)NC(=O)[C@](C)(CC(C)C)NC(=O)[C@@H](NC(=O)[C@H](CO)NC(=O)[C@H](Cc1ccncc1)NC(=O)[C@H](CC(=O)O)NC(=O)[C@H](CO)NC(=O)[C@@H](NC(=O)[C@](C)(Cc1ccccc1F)NC(=O)[C@@H](NC(=O)CNC(=O)[C@H](CCC(=O)O)NC(=O)C(C)(C)NC(=O)[C@@H](N)Cc1ccc(O)cc1)[C@@H](C)O)[C@@H](C)O)[C@@H](C)CC)[C@@H](C)CC)C(=O)N[C@@H](CCC(=O)O)C(=O)NCC(=O)N[C@@H](CCCN)C(N)=O [Example 190] (H-Y[Aib]EGT[αMePhe(2-F)]TSD[4Pal]SI[αMeL]LD[Orn]K([AEEA-AEEA-γGlu-C14 diacid])AQ[Aib]EFIK([AEEA-AEEA-γGlu-C14 diacid])[αMeY]LIEG[Orn]-NH2; N-terminus assumed)
EC50 (hGIPR; [1]): 1.55 nM
Emax (hGIPR; [2]): 82.8 ± 3.36%
Emax (hGIPR; HEK293, percent of maximal response to GIP(1-42)NH2, 37° C., 0.1% bovine casein, arithmetic mean, read-out: hGIPR Emax, % ± SEM): 94.5 ± 0.611%
EC50 (hGIPR; [3]): 0.024 nM
EC50 (hGCGR; [4]): > 9950 nM
EC50 (hGCGR; [5]): > 9950 nM
EC50 (hGLP-1R; [6]): 28.9 nM
Emax (hGLP-1R; HEK293, 0.1% bovine casein and 1.0% human serum albumin, 37° C., percent of maximal response to GLP-1(7-36)NH2, read-out: hGLP-1R Emax, % ± SEM): 112 ± 8.5%
Emax (hGLP-1R; HEK293, percent of maximal response to GLP-1(7-36)NH2, 37° C., 0.1% bovine casein, arithmetic mean, read-out: hGLP-1R Emax, % ± SEM): 98.9 ± 4.64%
EC50 (hGLP-1R; [7]): 0.303 nM

CC[C@H](C)[C@H](NC(=O)[C@H](CCCN)NC(=O)[C@H](CC(=O)O)NC(=O)[C@H](CC(C)C)NC(=O)[C@](C)(CC(C)C)NC(=O)[C@@H](NC(=O)[C@](C)(CO)NC(=O)[C@@H](NC(=O)[C@H](CC(=O)O)NC(=O)[C@H](CO)NC(=O)[C@@H](NC(=O)[C@](C)(Cc1ccccc1F)NC(=O)[C@@H](NC(=O)CNC(=O)[C@H](CCC(=O)O)NC(=O)C(C)(C)NC(=O)[C@@H](N)Cc1ccc(O)cc1)[C@@H](C)O)[C@@H](C)O)C(C)C)[C@@H](C)CC)C(=O)N[C@@H](C)C(=O)N[C@@H](CCC(N)=O)C(=O)NC(C)(C)C(=O)N[C@@H](CCC(=O)O)C(=O)N[C@@H](Cc1ccccc1)C(=O)N[C@H](C(=O)N[C@@H](CCCCNC(=O)COCCOCCNC(=O)COCCOCCNC(=O)CC[C@H](NC(=O)CCCCCCCCCOc1ccc(C(=O)O)cc1)C(=O)O)C(=O)N[C@@](C)(Cc1ccc(O)cc1)C(=O)N[C@@H](CC(C)C)C(=O)N[C@H](C(=O)N[C@@H](CCCCNC(=O)COCCOCCNC(=O)COCCOCCNC(=O)CC[C@H](NC(=O)CCCCCCCCCOc1ccc(C(=O)O)cc1)C(=O)O)C(=O)NCC(=O)NCC(=O)N1CCC[C@H]1C(=O)N[C@@H](CO)C(=O)N[C@@H](CO)C(=O)NCC(=O)N[C@@H](C)C(=O)N1CCC[C@H]1C(=O)N1CCC[C@H]1C(=O)N1CCC[C@H]1C(=O)N[C@@H](CO)C(N)=O)[C@@H](C)CC)[C@@H](C)CC [Example 309]
Emax (hGIPR; [8]): 95.3%
EC50 (hGIPR; hGIPR EC50, nM (SEM, n), 0.1% bovine casein and 1.0% human serum albumin, 37° C.): 6.08 nM
EC50 (hGIPR; hGIPR EC50, nM (SEM, n), cAMP, 37° C., 0.1% bovine casein (no human serum albumin)): 0.0212 nM
EC50 (hGCGR; [9]): > 9950 nM
EC50 (hGCGR; hGCGR EC50, nM (SEM, n), cAMP, 37° C., 0.1% bovine casein (no human serum albumin)): > 9950 nM
EC50 (hGLP-1R; hGLP-1R EC50, nM (SEM, n), cAMP, 37° C., 0.1% bovine casein (no human serum albumin)): 0.527 nM

CC[C@H](C)[C@H](NC(=O)[C@H](CCCN)NC(=O)[C@H](CC(=O)O)NC(=O)[C@H](CC(C)C)NC(=O)[C@](C)(CC(C)C)NC(=O)[C@@H](NC(=O)C(C)(C)NC(=O)[C@H](Cc1ccncc1)NC(=O)[C@H](CC(=O)O)NC(=O)[C@H](CO)NC(=O)[C@@H](NC(=O)[C@](C)(Cc1ccccc1F)NC(=O)[C@@H](NC(=O)CNC(=O)[C@H](CCC(=O)O)NC(=O)C(C)(C)NC(=O)[C@@H](N)Cc1ccc(O)cc1)[C@@H](C)O)[C@@H](C)O)[C@@H](C)CC)C(=O)N[C@@H](C)C(=O)N[C@@H](CCC(N)=O)C(=O)NC(C)(C)C(=O)N[C@@H](CCCCNC(=O)COCCOCCNC(=O)COCCOCCNC(=O)CC[C@H](NC(=O)CCCCCCCCCOc1ccc(C(=O)O)cc1)C(=O)O)C(=O)N[C@@H](Cc1ccccc1)C(=O)N[C@H](C(=O)N[C@H](CCC(=O)O)C(=O)N[C@@](C)(Cc1ccc(O)cc1)C(=O)N[C@@H](CC(C)C)C(=O)N[C@H](C(=O)N[C@@H](CCC(=O)O)C(=O)NCC(=O)NCC(=O)N1CCC[C@H]1C(=O)N[C@@H](CO)C(=O)N[C@@H](CO)C(=O)NCC(=O)N[C@@H](C)C(=O)N1CCC[C@H]1C(=O)N1CCC[C@H]1C(=O)N1CCC[C@H]1C(=O)N[C@@H](CO)C(=O)N[C@@H](CCCCNC(=O)COCCOCCNC(=O)COCCOCCNC(=O)CC[C@H](NC(=O)CCCCCCCCCOc1ccc(C(=O)O)cc1)C(=O)O)C(N)=O)[C@@H](C)CC)[C@@H](C)CC [Example 248] (H-Y[Aib]EGT[αMePhe(2-F)]TSD[4Pal][Aib]I[αMeL]LD[Orn]IAQ[Aib]K([AEEA-AEEA-γGlu-Decanoyl(10-(4-HOOC-PhO))])FI[dE][αMeY]LIEGGPSSGAPPPSK([AEEA-AEEA-γGlu-Decanoyl(10-(4-HOOC-PhO))])-NH2; N-terminus assumed)
Emax (hGIPR; [8]): 91.8%
EC50 (hGIPR; hGIPR EC50, nM (SEM, n), cAMP, incubated at 37° C., 0.1% bovine casein (no human serum albumin)): 0.0176 nM
EC50 (hGCGR; [9]): > 9950 nM
EC50 (hGCGR; hGCGR EC50, nM (SEM, n), cAMP, incubated at 37° C., 0.1% bovine casein (no human serum albumin)): > 9950 nM
Emax (hGLP-1R; HEK293, read-out: hGLP-1R Emax, % ± SEM, percent of maximal response to GLP-1(7-36)NH2, 37° C., 0.1% bovine casein, arithmetic mean): 89.1%
EC50 (hGLP-1R; hGLP-1R EC50, nM (SEM, n), 0.1% bovine casein and 1.0% human serum albumin, 37° C.): 56.7 nM
EC50 (hGLP-1R; hGLP-1R EC50, nM (SEM, n), cAMP, incubated at 37° C., 0.1% bovine casein (no human serum albumin)): 0.537 nM
